Experimental data as given in PubChem BioAssay AID1259407 (Chemical Carcinogenesis Research Information System (CCRIS), 2018).
Active and inactive are the calls of the source. No rule for the calls is given here.

System: CCRIS mutagenicity, Ames/micronucleus/aberration tests
Experiment: CCRIS mutagenicity studies
[1] = Test System: AMES SALMONELLA TYPHIMURIUM, Strain/Indicator: TA98, Metabolic Activation: NONE, Method: STANDARD PLATE
[2] = Test System: AMES SALMONELLA TYPHIMURIUM, Strain/Indicator: TA100, Metabolic Activation: NONE, Method: STANDARD PLATE
[3] = Test System: AMES SALMONELLA TYPHIMURIUM, Strain/Indicator: TA97, Metabolic Activation: NONE, Method: STANDARD PLATE

CCCCCCCC/C=C\CCCCCCCC(N)=O
mutagenic call (Test System: Ames Salmonella typhimurium, Strain/Indicator: TA98, Metabolic Activation: None, Method: Preincubation): inactive; negative. precipitation at 3 highest doses. | mutagenic call (Test System: Ames Salmonella typhimurium, Strain/Indicator: TA98, Metabolic Activation: Rat, Liver, S9, Phenobarbital and 5,6-benzoflavone, Method: Preincubation): inactive; negative. precipitation at 3 highest doses. | mutagenic call (Test System: Ames Salmonella typhimurium, Strain/Indicator: TA100, Metabolic Activation: None, Method: Preincubation): inactive; negative. precipitation at 3 highest doses. | mutagenic call (Test System: Ames Salmonella typhimurium, Strain/Indicator: TA100, Metabolic Activation: Rat, Liver, S9, Phenobarbital and 5,6-benzoflavone, Method: Preincubation): inactive; negative. precipitation at 3 highest doses. | mutagenic call (Test System: Ames Salmonella typhimurium, Strain/Indicator: TA1535, Metabolic Activation: None, Method: Preincubation): inactive; negative. precipitation at 3 highest doses. | mutagenic call (Test System: Ames Salmonella typhimurium, Strain/Indicator: TA1535, Metabolic Activation: Rat, Liver, S9, Phenobarbital and 5,6-benzoflavone, Method: Preincubation): inactive; negative. precipitation at 3 highest doses. | mutagenic call (Test System: Ames Salmonella typhimurium, Strain/Indicator: TA1537, Metabolic Activation: None, Method: Preincubation): inactive; negative. precipitation at 3 highest doses. | mutagenic call (Test System: Ames Salmonella typhimurium, Strain/Indicator: TA1537, Metabolic Activation: Rat, Liver, S9, Phenobarbital and 5,6-benzoflavone, Method: Preincubation): inactive; negative. precipitation at 3 highest doses. | mutagenic call (Test System: E. coli, Strain/Indicator: WP2uvrA/pKM101, Metabolic Activation: None, Method: Preincubation): inactive; negative. precipitation at 3 highest doses. | mutagenic call (Test System: E. coli, Strain/Indicator: WP2uvrA/pKM101, Metabolic Activation: Rat, Liver, S9, Phenobarbital and 5,6-benzoflavone, Method: Preincubation): inactive; negative. precipitation at 3 highest doses.

C[C@H]1C(=O)O[C@@H]2CCN3CC=C(COC(=O)[C@](C)(O)[C@]1(C)O)[C@H]23
mutagenic call (Test System: AMES SALMONELLA TYPHIMURIUM, Strain/Indicator: TA100, Metabolic Activation: HAMSTER, LIVER, S-9, PCB, Method: PREINCUBATION): inactive; negative | mutagenic call (Test System: AMES SALMONELLA TYPHIMURIUM, Strain/Indicator: TA100, Metabolic Activation: RAT, LIVER, S-9, PCB, Method: PREINCUBATION): inactive; negative | mutagenic call (Test System: AMES SALMONELLA TYPHIMURIUM, Strain/Indicator: TA100, Metabolic Activation: RAT, LIVER, S-9, SODIUM PHENOBARBITAL AND BETA-NAPHTHOFLAVONE, Method: PREINCUBATION): inactive; negative | mutagenic call (Test System: MOUSE LYMPHOMA, Strain/Indicator: L5178Y (TK+/TK-), Metabolic Activation: NONE, Method: MICROWELL): active; positive | mutagenic call (Test System: MOUSE LYMPHOMA, Strain/Indicator: L5178Y (TK+/TK-), Metabolic Activation: S-9, Method: MICROWELL): active; positive | mutagenic call (Test System: UDS HAMSTER HEPATOCYTES, Strain/Indicator: THY INCORP, Metabolic Activation: NONE, Method: AUTORADIOGRAPHY): active; positive | mutagenic call (Test System: UDS MOUSE HEPATOCYTES, Strain/Indicator: THY INCORP, Metabolic Activation: NONE, Method: AUTORADIOGRAPHY): active; positive | mutagenic call (Test System: UDS RAT HEPATOCYTES, Strain/Indicator: THY INCORP, Metabolic Activation: NONE, Method: AUTORADIOGRAPHY): active; positive

CC(N)c1ccccc1.CC(N)c1ccccc1.[Cl][Pt][Cl] (centres undefined)
mutagenic call [1]: active; positive | mutagenic call [2]: active; positive | mutagenic call (Test System: AMES SALMONELLA TYPHIMURIUM, Strain/Indicator: TA2410, Metabolic Activation: NONE, Method: STANDARD PLATE): active; positive

CC(C)c1ccc(/C=C/c2ccc(N)cc2)cc1
mutagenic call [1]: inactive; negative | mutagenic call (Test System: AMES SALMONELLA TYPHIMURIUM, Strain/Indicator: TA98, Metabolic Activation: RAT, LIVER, S9, AROCLOR, Method: STANDARD PLATE): active; positive | mutagenic call [2]: inactive; negative | mutagenic call (Test System: AMES SALMONELLA TYPHIMURIUM, Strain/Indicator: TA100, Metabolic Activation: RAT, LIVER, S9, AROCLOR, Method: STANDARD PLATE): active; positive

CC(=O)O[C@H]1C(=O)[C@@]2(C)[C@H]([C@H](OC(=O)c3ccccc3)[C@]3(O)C[C@H](OC(=O)[C@H](O)[C@@H](NC(=O)c4ccccc4)c4ccccc4)C(C)=C1C3(C)C)[C@]1(OC(C)=O)CO[C@@H]1C[C@@H]2O
mutagenic call (End Point: IN VITRO CHROMOSOMAL ABERRATIONS, Test System: PERIPHERAL HUMAN BLOOD LYMPHOCYTES, Metabolic Activation: NONE): active; positive (ploidy changes) | mutagenic call (End Point: In vitro micronucleus, Test System: Human lymphoblastoid TK6 cells, Metabolic Activation: None): active; positive (p<0.001) | mutagenic call (End Point: In vivo micronucleus, Test System: Micronucleated, binucleated and multinucleated hepatocytes, Species: Mouse, Strain/Sex: ddY/Male, Route: Intravenous): active; positive for micronucleated, binucleated and multinucleated cells when agent adm | mutagenic call [3]: inactive; negative | mutagenic call (Test System: AMES SALMONELLA TYPHIMURIUM, Strain/Indicator: TA97, Metabolic Activation: S-9, Method: STANDARD PLATE): inactive; negative | mutagenic call [1]: inactive; negative | mutagenic call (Test System: AMES SALMONELLA TYPHIMURIUM, Strain/Indicator: TA98, Metabolic Activation: S-9, Method: STANDARD PLATE): inactive; negative | mutagenic call [2]: inactive; negative | mutagenic call (Test System: AMES SALMONELLA TYPHIMURIUM, Strain/Indicator: TA100, Metabolic Activation: S-9, Method: STANDARD PLATE): inactive; negative | mutagenic call (Test System: AMES SALMONELLA TYPHIMURIUM, Strain/Indicator: TA102, Metabolic Activation: NONE, Method: STANDARD PLATE): inactive; negative | mutagenic call (Test System: AMES SALMONELLA TYPHIMURIUM, Strain/Indicator: TA102, Metabolic Activation: S-9, Method: STANDARD PLATE): inactive; negative | mutagenic call (Test System: Mouse lymphoma, Strain/Indicator: L5178Y (Tk+/Tk-), Metabolic Activation: None, Method: Microwell): active; positive

c1ccc(C(c2ccccc2)c2ccccc2)cc1
mutagenic call [3]: inactive; negative | mutagenic call (Test System: AMES SALMONELLA TYPHIMURIUM, Strain/Indicator: TA97, Metabolic Activation: RAT, LIVER, S-9, AROCLOR 1254, Method: STANDARD PLATE): inactive; negative | mutagenic call [1]: inactive; negative | mutagenic call (Test System: AMES SALMONELLA TYPHIMURIUM, Strain/Indicator: TA98, Metabolic Activation: RAT, LIVER, S-9, AROCLOR 1254, Method: STANDARD PLATE): inactive; negative | mutagenic call [2]: inactive; negative | mutagenic call (Test System: AMES SALMONELLA TYPHIMURIUM, Strain/Indicator: TA100, Metabolic Activation: RAT, LIVER, S-9, AROCLOR 1254, Method: STANDARD PLATE): inactive; negative | mutagenic call (Test System: AMES SALMONELLA TYPHIMURIUM, Strain/Indicator: TA104, Metabolic Activation: NONE, Method: STANDARD PLATE): inactive; negative | mutagenic call (Test System: AMES SALMONELLA TYPHIMURIUM, Strain/Indicator: TA104, Metabolic Activation: RAT, LIVER, S-9, AROCLOR 1254, Method: STANDARD PLATE): inactive; negative

Cc1ccc(N=Nc2c(O)c(C(=O)O)cc3ccccc23)c(S(=O)(=O)O)c1
mutagenic call [1]: inactive; negative | mutagenic call (Test System: AMES SALMONELLA TYPHIMURIUM, Strain/Indicator: TA98, Metabolic Activation: RAT LIVER S-9, AROCLOR 1254, Method: STANDARD PLATE): inactive; negative | mutagenic call [2]: inactive; negative | mutagenic call (Test System: AMES SALMONELLA TYPHIMURIUM, Strain/Indicator: TA100, Metabolic Activation: RAT LIVER S-9, AROCLOR 1254, Method: STANDARD PLATE): inactive; negative
